Measured values published in US8729077B2, “Anti-viral compounds, compositions, and methods of use” (GlaxoSmithKline LLC, priority 2008, dated 2014).

Assays:
[1] = test system: HCV genotype 1b subgenomic replicon; test: HCV replicon assay, genotype 1b (luciferase, ET cell line); format: cell-based; conditions: Hepatitis C virus; genotype 1b replicon (ET cell line); luciferase activity measured 48 hours later; 10 point dose response; read-out: 1B pEC50 (converted)
Protocol: (§1) Protocol for Testing and Data Analysis of Compounds in the HCV Replicon Assay
(§2) Compounds were assayed for activity against HCV using the genotype 1a and 1b subgenomic replicon model systems. Stable cell lines bearing the genotype 1a and 1b replicons were used for screening of compounds. Both replicons are bicistronic and contain the firefly luciferase gene. The ET cell line is stably transfected with RNA transcripts harboring a I389luc-ubi-neo/NS3-3′/ET replicon with firefly luciferase-ubiquitin-neomycin phosphotransferase fusion protein and EMCV-IRES driven NS3-5B polyprotein containing the cell culture adaptive mutations (E1202G; T1280I; K1846T) (Krieger at al, 2001 and unpublished). The genotype 1a replicon is a stable cell line licensed from Apath LLC, modified to contain the firefly luciferase gene. The cells were grown in DMEM, supplemented with 10% fetal calf serum, 2 mM Glutamine, Penicillin (100 IU/mL)/Streptomycin (100 μg/mL), 1× nonessential amino acids, and 250-500 μg/mL G418 (“Geneticin”). They were all available through Life Technologies (Bethesda, Md.). The cells were plated at 0.5×10^4 cells/well in 384 well plates containing compounds. The final concentration of compounds ranged between 0.03 pM to […] and the final DMSO concentration of 0.5-1%.
(§3) Luciferase activity was measured 48 hours later by adding a Steady glo (Promega, Madison, Wis.). Percent inhibition of replication data was plotted relative to no compound control. Under the same condition, cytotoxicity of the compounds was determined using cell titer glo (Promega, Madison, Wis.). EC50s were determined from a 10 point dose response curve using 3-4-fold serial dilution for each compound, which spans a concentration range >1000 fold. BioAssay determines the level of inhibition for each compound by normalizing cross-talk corrected plate values against the negative (low or background, cells with no compound present) and positive (high DMSO, no cells) controls to determine Percent Inhibition:
(§4) These normalized values are exported to EC50 where they are plotted against the molar compound concentrations using the standard four parameter logistic equation:
(§5) A=minimum y D=slope factor
(§6) B=maximum y x=log10 compound concentration [M]

[2] = test system: HCV genotype 1a subgenomic replicon; test: HCV replicon assay, genotype 1a (luciferase); format: cell-based; conditions: Hepatitis C virus; genotype 1a replicon stable cell line; luciferase activity measured 48 hours later; 10 point dose response; read-out: 1A pEC50 (converted)
Protocol: as §1, §2, §3, §4, §5, §6

Row | Compound | EC50 [1] [nM] | EC50 [2] [nM]
1 | CN(C)[C@@H](C(=O)N1CCC[C@H]1c1nc(-c2ccc(-c3ccc(-c4c[nH]c([C@@H]5COC6(CCOCC6)N5C(=O)OCc5ccccc5)n4)cc3)cc2)c[nH]1)c1ccccc1 [example 1] | 0.00347 | 1.58
2 | COC(=O)N[C@H](C(=O)N1CCC[C@H]1c1ncc(-c2ccc(-c3ccc(-c4cnc([C@@H]5C=C(C)CN5C(=O)[C@H](NC(=O)OC)C(C)C)[nH]4)cc3)cc2)[nH]1)C(C)C [example 9, (1-{(S)-2-[5-(4′-{2-[(S)-1-((R)-2-Methoxycarbonylamino-3-methyl-butyryl)-4-methyl-2,5-dihydro-1H-pyrrol-2-yl]-3H-imidazol-4-yl}-biphenyl-4-yl)-1H-imidazol-2-yl]-pyrrolidine-1-carbonyl}-2-methyl-propyl)-carbamic acid methyl ester] | 0.00776 | 0.0158
3 | CCC1=C[C@@H](c2ncc(-c3ccc(-c4ccc(-c5cnc([C@@H]6CCCN6C(=O)C(NC(=O)OC)C(C)C)[nH]5)cc4)cc3)[nH]2)N(C(=O)[C@H](NC(=O)OC)C(C)C)C1 (stereo partly drawn) [example 10, (1-{(S)-2-[5-(4′-{2-[(S)-4-Ethyl-1-((R)-2-methoxycarbonylamino-3-methyl-butyryl)-2,5-dihydro-1H-pyrrol-2-yl]-3H-imidazol-4-yl}-biphenyl-4-yl)-1H-imidazol-2-yl]-pyrrolidine-1-carbonyl]-2-methyl-propyl)-carbamic acid methyl ester] | 0.00603 | 0.0316
4 | COC(=O)N[C@H](C(=O)N1CC(C2CC2)=C[C@H]1c1ncc(-c2ccc(-c3ccc(-c4cnc([C@@H]5CCCN5C(=O)[C@@H](NC(=O)OC)C(C)C)[nH]4)cc3)cc2)[nH]1)C(C)C [example 11, methyl[(1S)-1-({(2S)-2-[4-(4′-{2-[(2S)-4-cyclopropyl-1-((2S)-3-methyl-2-{[(methyloxy)carbonyl]amino}butanoyl)-2,5-dihydro-1H-pyrrol-2-yl]-1H-imidazol-4-yl}-4-biphenylyl)-1H-imidazol-2-yl]-1-pyrrolidinyl}carbonyl)-2-methylpropyl]carbamate] | 0.00468 | 0.0126
5 | CC=C1C[C@@H](c2ncc(-c3ccc(-c4ccc(-c5cnc([C@@H]6CCCN6C(=O)C(NC(=O)OC)C(C)C)[nH]5)cc4)cc3)[nH]2)N(C(=O)C(NC(=O)OC)C(C)C)C1 (stereo partly drawn) [example 12, (1-{(S)-2-[5-(4′-{2-[(S)-4-Ethylidene-1-(2-methoxycarbonylamino-3-methyl-butyryl)-pyrrolidin-2-yl]-3H-imidazol-4-yl}-biphenyl-4-yl)-1H-imidazol-2-yl]-pyrrolidine-1-carbonyl}-2-methyl-propyl)-carbamic acid methyl ester] | 0.00437 | 0.0158
